Common to all, as to format: cell-based
The target in one experiment is T1, human P2X2 receptors (Homo sapiens, UniProt Q9UBL9).
T1 construct: expressed in transfected cells
T1 sequence (Q9UBL9 1-404 isoform Q9UBL9-2): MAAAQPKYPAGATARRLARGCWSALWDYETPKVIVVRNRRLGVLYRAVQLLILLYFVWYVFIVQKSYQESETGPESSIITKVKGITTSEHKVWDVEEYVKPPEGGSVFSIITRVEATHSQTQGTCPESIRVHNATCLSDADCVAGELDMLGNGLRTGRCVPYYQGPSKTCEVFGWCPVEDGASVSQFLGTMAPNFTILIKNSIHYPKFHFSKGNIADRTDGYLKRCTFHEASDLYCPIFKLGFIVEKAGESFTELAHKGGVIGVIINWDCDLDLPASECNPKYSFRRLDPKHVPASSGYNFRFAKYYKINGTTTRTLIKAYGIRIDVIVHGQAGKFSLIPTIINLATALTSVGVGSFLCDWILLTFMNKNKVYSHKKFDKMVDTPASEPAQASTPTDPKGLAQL
Briefly: Whole-cell patch-clamp concentration-activation, HEK293 cells stably expressing hP2X2. Here is the method:
(§1) Human P2X receptors were expressed from HEK293 cell lines containing an inducible promoter system (Flp-In-T-REx 293, Invitrogen, Waltham, MA, USA). The used cell lines were: hP2X2 B (RRID: AC line CVCL_D6U1), hP2X3 (RRID: AC line CVCL_D6U3), and hP2X2/3 (RRID: AC line CVCL_D6U2). The cells were cultured in MEM supplemented with non-essential amino acids (Gibco, Waltham, MA, USA), 10% FCS, and antibiotics, according to the manufacturer’s instructions. For stable cell lines, Flp-In-T-REx 293 cells were transfected using the calcium phosphate method with a mixture of plasmids (0.3 µg pcDNA5/FRT/TO P2X gene and 1.5 µg pOG44) and selected for hygromycin resistance. The cells were seeded on glass coverslips for electrophysiological measurements and used 24–48 h after tetracycline induction ([…]).
(§2) Membrane currents were recorded with a standard patch-clamp technique in the whole-cell configuration. The patch pipettes were pulled from borosilicate glass (ID 1.0 mm, OD 2.0 mm; VITROCOM, Mountain Lakes, NJ, USA) using a micropipette puller (P-97, Sutter Instrument, Novato, CA, USA). The pipettes were filled with intracellular solution containing (mM) 142 NaCl, 5 BAPTA, 5 EGTA, and 10 HEPES at pH 7.4. The pipette resistance was from 2.0 to 6.0 MΩ. The bath solution contained (mM) 142 NaCl, 10 EGTA, 10 HEPES, and 10 glucose at pH 7.4. To increase the speed of recovery from the hP2X3 receptors, we additionally used a bath solution containing (mM) 142 NaCl, 10 HEPES, 10 glucose, 2 CaCl2, and 1 MgCl2. The cells were lifted for recording from the chamber bottom by the patch pipette and positioned in front of the outlet of the application pipette.
(§3) Solutions switches were carried out with the application pipette that had three barrels (inner diameter ~600 µm, Warner Instruments) controlled by a step motor (SF-77B, Warner Instruments). The speed of the laminar solution flow out of the barrels was estimated to be 2–5 cm/s. One barrel contained a control solution and another was connected to a solution selector (Vici Valco Instruments), which allowed us to apply different test solutions by exchanging the solution during the interval (60 sec for P2X2 and P2X2/3 receptors, 180 s for P2X3 receptors) of applying the control solution. Cells expressing hP2X3 were washed with 3 Units/mL apyrase for 30 min to remove ATP. To ensure the comparability of the data points between each application, we rinsed hP2X3 with the following solution for 3 min after each ATP application (mM): 142 NaCl, 10 HEPES, 10 glucose, 2 CaCl2, and 1 MgCl2 at pH 7.4. After sufficient recovery, we switched to the bath solution for 10 s and then to the solution of interest. The speed of the switch around a whole cell was estimated to be below 10 ms by switching between different salt solutions.
(§4) The saturation of activation was determined with ATP at 100 µM. The currents were recorded with a HEKA EPC 10 amplifier in combination with the patchmaster software. The sampling rate was 10 kHz and the recordings were on-line filtered at 2.9 kHz using a four-pole Bessel filter. The currents were recorded at a constant holding potential of −50 mV and the series resistance was compensated with the patchmaster software up to 80%.
(§5) The concentration–activation relationships from whole-cell measurements in the HEK293 cells were obtained from the maximum currents during ATP application. These current amplitudes were normalised with respect to the current at saturating ATP (100 µM) and the resulting data points were fitted I/ImaxATP = Amp/(1 + (EC50/[X])^h) (1) with the Origin 2019® software using a non-linear curve fitting routine. I is the actual current amplitude and ImaxATP is the maximum current amplitude at saturating ATP. The amplitude Amp is the efficacy of the respective ligands. EC50 is the ligand concentration generating the half-maximum current and h is the respective Hill coefficient. [X] is the actual concentration of ATP to be tested. […]
(In patch-clamp work, channel activity is measured electrically.)

The target of a further experiment is T2, human P2X3 receptors (Homo sapiens, UniProt P56373).
T2 construct: expressed in transfected cells
T2 sequence (P56373 1-397): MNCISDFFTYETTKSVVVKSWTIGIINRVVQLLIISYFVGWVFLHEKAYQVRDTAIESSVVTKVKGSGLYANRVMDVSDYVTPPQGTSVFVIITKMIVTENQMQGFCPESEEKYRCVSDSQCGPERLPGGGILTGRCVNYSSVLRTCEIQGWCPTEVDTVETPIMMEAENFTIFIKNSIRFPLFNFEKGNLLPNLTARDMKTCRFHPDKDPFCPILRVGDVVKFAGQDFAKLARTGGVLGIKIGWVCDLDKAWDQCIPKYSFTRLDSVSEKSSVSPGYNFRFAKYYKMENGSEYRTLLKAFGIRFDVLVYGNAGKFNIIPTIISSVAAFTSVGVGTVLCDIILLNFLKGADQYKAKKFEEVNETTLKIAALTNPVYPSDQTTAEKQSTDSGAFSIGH
Nature of the experiment: Whole-cell patch-clamp concentration-activation, HEK293 cells stably expressing hP2X3. As to conditions: for Hill: hP2X3, Hill coefficient of concentration-activation fit; for Effect (Fold in ATP Potency): hP2X3, relative to ATP; for Effect (Fold in ATP Efficacy): hP2X3, relative to current at 100 µM ATP; for EC50: hP2X3, whole-cell, -50 mV, divalent-cation-free bath with 10 mM EGTA, normalised to 100 µM ATP. Here is the method: as §1, §2, §3, §4, §5

Another experiment concerns the target T3, human P2X2/3 receptors (Homo sapiens, UniProt P56373+Q9UBL9).
T3 construct: expressed in transfected cells
T3 sequence (Q9UBL9 1-404 isoform Q9UBL9-2): T1 sequence (Q9UBL9 1-404 isoform Q9UBL9-2)
T3 sequence (P56373 1-397): T2 sequence (P56373 1-397)
Briefly: Whole-cell patch-clamp concentration-activation, HEK293 cells stably expressing hP2X2/3. To be noted: for Hill: hP2X2/3, Hill coefficient of concentration-activation fit; for Effect (Fold in ATP Efficacy): hP2X2/3, relative to current at 100 µM ATP; for EC50: hP2X2/3, whole-cell, -50 mV, divalent-cation-free bath with 10 mM EGTA, normalised to 100 µM ATP. On the procedure:
as §1, §2, §3, §4, §5

A word on the EC50: it is the concentration needed to bring the measured effect to its halfway point. Turning to `COCC[N+]1=C(C=CC=C2N(CCCCCC(=O)NCCCCCCSc3nc(N)c4ncn(C5OC(COP(=O)(O)CP(=O)(O)OP(=O)(O)O)C(O)C5O)c4n3)c3ccc(S(=O)(=O)O)cc3C2(C)C)C(C)(C)c2cc(S(=O)(=O)[O-])ccc21` (stereo not drawn) [α,βMe-fATP, 2-[DY-547P1]-AHT-α,βMe-ATP], on human P2X2 receptors (hP2X2, 10 µM α,βMe-fATP co-applied with 0.1 µM ATP, versus ATP alone), the “Elevation of activation level on co-application with ATP” value is “approximately 55%”. Besides, on human P2X2 receptors (hP2X2, α,βMe-fATP alone (10 µM)), the “Effect of ligand alone on current” value is reported as “no discernible effect”. Besides, at human P2X3 receptors, the Hill is recorded as 3.5 ± 0.0, the “Effect (Fold in ATP Potency)” value worked out at 0.1 fold, the “Effect (Fold in ATP Efficacy)” value is 1.0 fold and the 50% effective concentration (EC50) was 8100 nM. Besides, at human P2X2/3 receptors, the Hill amounted to 4.4 ± 3.5, the “Effect (Fold in ATP Efficacy)” value turned out to be 0.03 fold and the EC50 was 1500 ± 600 nM. In addition, at human P2X2/3 receptors (hP2X2/3, relative to ATP), the “Effect (Fold in ATP Potency)” value was 1.8 fold.
For the compound `COCC[N+]1=C(C=CC=C2N(CCCCCC(=O)NCCCCCCSc3nc(N)c4ncn(C5OC(COP(=O)(O)OP(=O)(O)OP(=O)(O)O)C(O)C5O)c4n3)c3ccc(S(=O)(=O)O)cc3C2(C)C)C(C)(C)c2cc(S(=O)(=O)[O-])ccc21` (centres unmarked) [fATP, 2-[DY-547P1]-AHT-ATP], the Hill at human P2X2 receptors (hP2X2, Hill coefficient of concentration-activation fit) is given as 1.4 ± 0.1; on human P2X3 receptors, 1.6 ± 0.1; at human P2X2/3 receptors, 0.9 ± 0.2. In addition, the “Effect (Fold in ATP Potency)” value on human P2X2 receptors (hP2X2, relative to ATP) was 0.2 fold; on human P2X3 receptors, 0.9 fold. Also, the “Effect (Fold in ATP Efficacy)” value at human P2X2 receptors (hP2X2, relative to current at 100 µM ATP) worked out at 1.0 fold; at human P2X3 receptors, 0.8 fold; on human P2X2/3 receptors, 0.4 fold. Moreover, the “Agonist behaviour (current response)” value is “full agonist” on human P2X2 receptors (hP2X2, result in words) and “partial agonist” on human P2X2/3 receptors (hP2X2/3, result in words). Moreover, the EC50 on human P2X2 receptors (hP2X2, whole-cell, -50 mV, divalent-cation-free bath with 10 mM EGTA, normalised to 100 µM ATP) is 4600 ± 300 nM; at human P2X3 receptors it was 1300 ± 100 nM; at human P2X2/3 receptors it was 700 ± 300 nM.

The record behind these values is article PMC11352409, “Subtype-Specific Ligand Binding and Activation Gating in Homomeric and Heteromeric P2X Receptors” (Biomolecules, 2024).
